Data: patent publication US6455551B1, “Use of 1-hydroxy-2-pyridones for treating mucosa diseases which are difficult to treat” (Aventis Pharma Deutschland GmbH, priority 1996, dated 2002)
Values after ≈ are worked out from the molar mass of the structure shown. Where two headings read alike, the source gives them in different places.

Legend:
Format in all cases: cell-based
[1] = test system: Candida guillermondii; test: Microtiter dilution MIC test in RPMI 1640 medium, Candida guillermondii strain; details: Candida guillermondii B47; 35° C., 48 hours; read-out: Minimum inhibitory concentration (MIC)
Procedure: (§1) Fluconazole-resistant strains of Candida albicans are isolated from patients who have been treated, for example, with fluconazole for more than one year. For this purpose, samples are taken from the patients' mouths and applied, undiluted or diluted 1:100, to an RPMI 1640 agar (Gibco/BRL, Life Technologies GmbH, D-76339 Eggenstein) which contains about 1.0 μg/ml fluconazole. Resistant Candida albicans strains are isolated, further purified on agar and stored isolated in peptone/dextrose slant agar tubes.
(§2) The activity of Compound 1 and fluconazole is determined by the microtiter dilution technique in RPMI 1640 medium. The growth medium RPMI 1640 buffered with 0.165 M morpholinopropanesulfonic acid pH 7.0 is introduced into 96-well microtiter plates. Serial dilutions by a factor of 2 are prepared for Compound 1 and fluconazole to result in final concentrations of 256 to 0.002 μg/ml of Compound 1 and fluconazole. The microtiter plates prepared in this way are incubated with the Candida strains to be tested. For comparison purposes, the two Candida albicans strains ATCC 90028 and 90029 which are not resistant to fluconazole are included in the test. The initial cell count is 1-5 ×10^3 colony-forming units per ml of growth medium. The microtiter plates are incubated at 35° C. for 48 hours. The minimum inhibitory concentration is determined by photometry at 510 nm.

[2] = test system: Candida krusei; test: Microtiter dilution MIC test in RPMI 1640 medium, Candida krusei strains; details: Pichia kudriavzevii, 48 h, read-out: Minimum inhibitory concentration (MIC)
Procedure: as §1, §2

[3] = test system: Candida glabrata; test: Microtiter dilution MIC test in RPMI 1640 medium, Candida glabrata strains; details: Nakaseomyces glabratus, 48 h, read-out: Minimum inhibitory concentration (MIC)
Procedure: as §2

[4] = test system: Entamoeba histolytica; test: In vitro activity on protozoa, Entamoeba histolytica
Text: (§3) In vitro activity of the Compound 1 on protozoa

[5] = test system: Trichomonas vaginalis; test: In vitro activity on protozoa, Trichomonas vaginalis
Text: as §3

[6] = test system: Candida albicans; test: Microtiter dilution MIC test in RPMI 1640 medium, Candida albicans strains; details: read-out: Minimum inhibitory concentration (MIC)
Procedure: as §1, §2

[7] = 48 h, Candida albicans 94/3, 35° C.
[8] = 48 h, Candida albicans 94/14, 35° C.
[9] = 48 h, Candida albicans 94/57, 35° C.
[10] = 48 h, Candida albicans 94/62, 35° C.
[11] = 48 h, Candida albicans 94/90, 35° C.
[12] = 48 h, Candida albicans 94/118, 35° C.
[13] = 48 h, Candida albicans 94/134, 35° C.
[14] = 48 h, Candida albicans 94/138, 35° C.
[15] = 48 h, Candida albicans 94/222, 35° C.
[16] = 48 h, Candida albicans 94/231, 35° C.
[17] = 48 h, Candida albicans B6, 35° C.
[18] = 48 h, Candida albicans B70, 35° C.
[19] = 48 h, Candida albicans B75, 35° C.
[20] = ATCC90028, 48 h, Candida albicans ATCC 90028 (not resistant to fluconazole), 35° C.
[21] = ATCC90029, 48 h, Candida albicans ATCC 90029 (not resistant to fluconazole), 35° C.

Cc1cc(COc2ccc(Oc3ccc(Cl)cc3)cc2)n(O)c(=O)c1 [Compound 1, 6-[4-(4-chlorophenoxy)phenoxymethyl]-1-hydroxy4-methyl-2(1H)-pyridone]
MIC [1]: 1 µg/mL (≈ 2.79 µM) | MIC ([2]; Candida krusei B1, 35° C.): 0.5 µg/mL (≈ 1.4 µM) | MIC ([2]; Candida krusei B4, 35° C.): 1 µg/mL (≈ 2.79 µM) | MIC ([3]; Candida glabrata B12, 35° C.): 0.5 µg/mL (≈ 1.4 µM) | MIC ([3]; Candida glabrata B14, 35° C.): 0.5 µg/mL (≈ 1.4 µM) | MIC ([3]; Candida glabrata B18, 35° C.): 0.5 µg/mL (≈ 1.4 µM) | MIC ([3]; Candida glabrata B21, 35° C.): 1 µg/mL (≈ 2.79 µM) | MIC ([3]; Candida glabrata B35, 35° C.): 1 µg/mL (≈ 2.79 µM) | MIC ([3]; Candida glabrata B37, 35° C.): 1 µg/mL (≈ 2.79 µM) | MIC ([3]; Candida glabrata B38, 35° C.): 1 µg/mL (≈ 2.79 µM) | MIC ([3]; Candida glabrata B39, 35° C.): 0.5 µg/mL (≈ 1.4 µM) | MIC ([3]; Candida glabrata B40, 35° C.): 1 µg/mL (≈ 2.79 µM) | MIC ([3]; Candida glabrata B50, 35° C.): 0.5 µg/mL (≈ 1.4 µM) | MIC ([3]; Candida glabrata B51, 35° C.): 0.5 µg/mL (≈ 1.4 µM) | MIC ([4]; 3 of n = 4 strains investigated): 62.5 µg/mL (≈ 175 µM) | MIC ([4]; remaining strain of n = 4 strains investigated (count not given)): 31.2 µg/mL (≈ 87.2 µM) | MIC ([5]; 2 of n = 5 strains investigated): 125 µg/mL (≈ 349 µM) | MIC ([5]; 3 of n = 5 strains investigated): 31.2 µg/mL (≈ 87.2 µM) | MIC [6, 7]: 2 µg/mL (≈ 5.59 µM) | MIC [6, 8]: 2 µg/mL (≈ 5.59 µM) | MIC [6, 9]: 1 µg/mL (≈ 2.79 µM) | MIC [6, 10]: 1 µg/mL (≈ 2.79 µM) | MIC [6, 11]: 1 µg/mL (≈ 2.79 µM) | MIC [6, 12]: 2 µg/mL (≈ 5.59 µM) | MIC [6, 13]: 1 µg/mL (≈ 2.79 µM) | MIC [6, 14]: 1 µg/mL (≈ 2.79 µM) | MIC [6, 15]: 1 µg/mL (≈ 2.79 µM) | MIC [6, 16]: 1 µg/mL (≈ 2.79 µM) | MIC [6, 17]: 1 µg/mL (≈ 2.79 µM) | MIC [6, 18]: 1 µg/mL (≈ 2.79 µM) | MIC [6, 19]: 1 µg/mL (≈ 2.79 µM) | MIC [6, 20]: 1 µg/mL (≈ 2.79 µM) | MIC [6, 21]: 0.5 µg/mL (≈ 1.4 µM)

OC(Cn1cncn1)(Cn1cncn1)c1ccc(F)cc1F [Fluconazole, fluconazole, reference compound]
MIC [1]: 4 µg/mL (≈ 13.1 µM) | MIC ([2]; Candida krusei B1, 35° C.): 32 µg/mL (≈ 104 µM) | MIC ([2]; Candida krusei B4, 35° C.): 16 µg/mL (≈ 52.2 µM) | MIC ([3]; Candida glabrata B12, 35° C.): 4 µg/mL (≈ 13.1 µM) | MIC ([3]; Candida glabrata B14, 35° C.): 2 µg/mL (≈ 6.53 µM) | MIC ([3]; Candida glabrata B18, 35° C.): 8 µg/mL (≈ 26.1 µM) | MIC ([3]; Candida glabrata B21, 35° C.): 8 µg/mL (≈ 26.1 µM) | MIC ([3]; Candida glabrata B35, 35° C.): 8 µg/mL (≈ 26.1 µM) | MIC ([3]; Candida glabrata B37, 35° C.): 16 µg/mL (≈ 52.2 µM) | MIC ([3]; Candida glabrata B38, 35° C.): 16 µg/mL (≈ 52.2 µM) | MIC ([3]; Candida glabrata B39, 35° C.): 8 µg/mL (≈ 26.1 µM) | MIC ([3]; Candida glabrata B40, 35° C.): 16 µg/mL (≈ 52.2 µM) | MIC ([3]; Candida glabrata B50, 35° C.): 16 µg/mL (≈ 52.2 µM) | MIC ([3]; Candida glabrata B51, 35° C.): 32 µg/mL (≈ 104 µM) | MIC [6, 7]: 32 µg/mL (≈ 104 µM) | MIC [6, 8]: 32 µg/mL (≈ 104 µM) | MIC [6, 9]: > 256 µg/mL | MIC [6, 10]: > 256 µg/mL | MIC [6, 11]: > 256 µg/mL | MIC [6, 12]: > 256 µg/mL | MIC [6, 13]: > 256 µg/mL | MIC [6, 14]: > 256 µg/mL | MIC [6, 15]: > 256 µg/mL | MIC [6, 16]: > 256 µg/mL | MIC [6, 17]: 1 µg/mL (≈ 3.27 µM) | MIC [6, 18]: > 256 µg/mL | MIC [6, 19]: 2 µg/mL (≈ 6.53 µM) | MIC [6, 20]: 0.5 µg/mL (≈ 1.63 µM) | MIC [6, 21]: 1 µg/mL (≈ 3.27 µM)
